From the supplement of paper PMC10307832

Key:
Test in all cases: relative viability (nuclei count vs DMSO), 5 days (fraction); higher = more cells survive
201T = tested on: 201T
Summary of the method: (§1)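 Dosing by pin tool came one day after lung cancer cell lines were seeded in 1536-well plates, using either one drug or a fixed anchor-drug dose plus five library-drug doses (not always all listed) in √10 steps. After 5 days, nuclei were counted on 4× images. Relative viability is treated-well nuclei count divided by vehicle-well nuclei count, and values are medians of duplicate plates.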

COR-L 105 = tested on: COR-L 105
Summary of the method: as §1

NCI-H460 = tested on: NCI-H460
Summary of the method: as §1

NCI-H3122 = tested on: NCI-H3122
Summary of the method: as §1

LK-2 = tested on: LK-2
Summary of the method: as §1

NCI-H1437 = tested on: NCI-H1437
Summary of the method: as §1

NCI-H727 = tested on: NCI-H727
Summary of the method: as §1

CAL-12T = tested on: CAL-12T
Summary of the method: as §1

NCI-H1666 = tested on: NCI-H1666
Summary of the method: as §1

HARA = tested on: HARA
Summary of the method: as §1

NCI-H2009 = tested on: NCI-H2009
Summary of the method: as §1

EKVX = tested on: EKVX
Summary of the method: as §1

HCC-366 = tested on: HCC-366
Summary of the method: as §1

ABC-1 = tested on: ABC-1
Summary of the method: as §1

NCI-H441 = tested on: NCI-H441
Summary of the method: as §1

PC-14 = tested on: PC-14
Summary of the method: as §1

BEN = tested on: BEN
Summary of the method: as §1

NCI-H661 = tested on: NCI-H661
Summary of the method: as §1

LOU-NH91 = tested on: LOU-NH91
Summary of the method: as §1

O=c1cc(N2CCOCC2)oc2c(-c3cccc4c3sc3ccccc34)cccc12 + C[C@]1(O)C[C@@H](c2nc(-c3ccc4ccc(-c5ccccc5)nc4c3)c3c(N)nccn32)C1 [Linsitinib] (partner 1 µM)
relative viability (201T; first compound 0.01 µM): 1.04
relative viability (201T; first compound 0.03162 µM): 1.03
relative viability (201T; first compound 0.1 µM): 1.03
relative viability (201T; first compound 0.3162 µM): 1.01
relative viability (201T; first compound 1 µM): 1.05
relative viability (COR-L 105; first compound 0.01 µM): 0.858
relative viability (COR-L 105; first compound 0.03162 µM): 0.792
relative viability (COR-L 105; first compound 0.1 µM): 0.851
relative viability (COR-L 105; first compound 0.3162 µM): 0.773
relative viability (COR-L 105; first compound 1 µM): 0.895
relative viability (NCI-H460; first compound 0.01 µM): 0.764
relative viability (NCI-H460; first compound 0.03162 µM): 0.708
relative viability (NCI-H460; first compound 0.1 µM): 0.739
relative viability (NCI-H460; first compound 0.3162 µM): 0.822
relative viability (NCI-H460; first compound 1 µM): 0.78
relative viability (NCI-H3122; first compound 0.01 µM): 1.01
relative viability (NCI-H3122; first compound 0.03162 µM): 0.977
relative viability (NCI-H3122; first compound 0.1 µM): 1.12
relative viability (NCI-H3122; first compound 0.3162 µM): 1.03
relative viability (NCI-H3122; first compound 1 µM): 0.944
relative viability (LK-2; first compound 0.01 µM): 0.585
relative viability (LK-2; first compound 0.03162 µM): 0.754
relative viability (LK-2; first compound 0.1 µM): 0.83
relative viability (LK-2; first compound 0.3162 µM): 0.554
relative viability (LK-2; first compound 1 µM): 0.69
relative viability (NCI-H1437; first compound 0.01 µM): 1.01
relative viability (NCI-H1437; first compound 0.03162 µM): 1.11
relative viability (NCI-H1437; first compound 0.1 µM): 1.09
relative viability (NCI-H1437; first compound 0.3162 µM): 1
relative viability (NCI-H1437; first compound 1 µM): 0.979
relative viability (NCI-H727; first compound 0.01 µM): 0.29
relative viability (NCI-H727; first compound 0.03162 µM): 0.238
relative viability (NCI-H727; first compound 0.1 µM): 0.243
relative viability (NCI-H727; first compound 0.3162 µM): 0.227
relative viability (NCI-H727; first compound 1 µM): 0.283
relative viability (CAL-12T; first compound 0.01 µM): 0.851
relative viability (CAL-12T; first compound 0.03162 µM): 0.809
relative viability (CAL-12T; first compound 0.1 µM): 0.842
relative viability (CAL-12T; first compound 0.3162 µM): 0.873
relative viability (CAL-12T; first compound 1 µM): 0.879
relative viability (NCI-H1666; first compound 0.01 µM): 0.735
relative viability (NCI-H1666; first compound 0.03162 µM): 0.803
relative viability (NCI-H1666; first compound 0.1 µM): 0.972
relative viability (NCI-H1666; first compound 0.3162 µM): 0.776
relative viability (NCI-H1666; first compound 1 µM): 0.636
relative viability (HARA; first compound 0.01 µM): 0.996
relative viability (HARA; first compound 0.03162 µM): 0.933
relative viability (HARA; first compound 0.1 µM): 1.03
relative viability (HARA; first compound 0.3162 µM): 1.17
relative viability (HARA; first compound 1 µM): 0.926
relative viability (NCI-H2009; first compound 0.01 µM): 1.16
relative viability (NCI-H2009; first compound 0.03162 µM): 1.17
relative viability (NCI-H2009; first compound 0.1 µM): 1.19
relative viability (NCI-H2009; first compound 0.3162 µM): 1.17
relative viability (NCI-H2009; first compound 1 µM): 1.05
relative viability (EKVX; first compound 0.01 µM): 0.989
relative viability (EKVX; first compound 0.03162 µM): 0.907
relative viability (EKVX; first compound 0.1 µM): 1.19
relative viability (EKVX; first compound 0.3162 µM): 0.956
relative viability (EKVX; first compound 1 µM): 1.01
relative viability (HCC-366; first compound 0.01 µM): 0.671
relative viability (HCC-366; first compound 0.03162 µM): 0.656
relative viability (HCC-366; first compound 0.1 µM): 0.797
relative viability (HCC-366; first compound 0.3162 µM): 0.662
relative viability (HCC-366; first compound 1 µM): 0.625
relative viability (ABC-1; first compound 0.01 µM): 0.89
relative viability (ABC-1; first compound 0.03162 µM): 0.717
relative viability (ABC-1; first compound 0.1 µM): 0.745
relative viability (ABC-1; first compound 0.3162 µM): 0.618
relative viability (ABC-1; first compound 1 µM): 0.586
relative viability (NCI-H441; first compound 0.01 µM): 0.53
relative viability (NCI-H441; first compound 0.03162 µM): 0.518
relative viability (NCI-H441; first compound 0.1 µM): 0.582
relative viability (NCI-H441; first compound 0.3162 µM): 0.555
relative viability (NCI-H441; first compound 1 µM): 0.594
relative viability (PC-14; first compound 0.01 µM): 0.998
relative viability (PC-14; first compound 0.03162 µM): 0.934
relative viability (PC-14; first compound 0.1 µM): 0.952
relative viability (PC-14; first compound 0.3162 µM): 0.952
relative viability (PC-14; first compound 1 µM): 0.848
relative viability (BEN; first compound 0.01 µM): 0.887
relative viability (BEN; first compound 0.03162 µM): 0.916
relative viability (BEN; first compound 0.1 µM): 0.978
relative viability (BEN; first compound 0.3162 µM): 1.02
relative viability (BEN; first compound 1 µM): 0.948
relative viability (NCI-H661; first compound 0.01 µM): 0.652
relative viability (NCI-H661; first compound 0.03162 µM): 0.579
relative viability (NCI-H661; first compound 0.1 µM): 0.571
relative viability (NCI-H661; first compound 0.3162 µM): 0.649
relative viability (NCI-H661; first compound 1 µM): 0.614
relative viability (LOU-NH91; first compound 0.01 µM): 0.857
relative viability (LOU-NH91; first compound 0.03162 µM): 0.937
relative viability (LOU-NH91; first compound 0.1 µM): 0.938
relative viability (LOU-NH91; first compound 0.3162 µM): 1.03
relative viability (LOU-NH91; first compound 1 µM): 0.936
